Measured values as given in US20120295960A1, “TREATMENT REGIMEN FOR PARKINSON'S DISEASE” (priority 2011, published 2012).

Tested on: MPTP macaques
Assay: Dyskinesia studies in drug-naive MPTP primates (video dyskinesia analysis, L-Dopa and apomorphine challenge)
Source text: Neurotoxin MPTP was first administrated to 23 macaques until they developed severe Parkinsonism, these were then divided into experimental groups according to the following experiments: • 1. […] The animals were then observed from 2 up to 44 months. A subset of these primates were included for histology, microdialysis, electrophysiology, and metabolism studies. • 2. […] For the latter group, five MPTP macaques received daily oral L-Dopa for 12 weeks (MPTP-L-Dopa group, n=5). • 3. In the third experiment the potential of dyskinesia induction in MPTP macaques was studied by challenging them with a short acting D1/D2 dopaminergic agonist, apomorphine, then with an acute oral dose of L-Dopa. […] Animals were then challenged with L-Dopa and the number of dyskinesias was assessed with a specific software (The Observer®, Noldus)
All animals were assessed daily for their general clinical condition with special attention paid to the nutritional status. At the same time, the general neurological state of each macaque was assessed both pre- and post-lentiviral injections. To objectively quantify our neurological observations, animals were video-taped for 30 minutes before MPTP lesioning and at regular intervals following viral injections. The videos were then analyzed off-line by an examiner blinded to the experimental conditions. […]

With `CN1CCc2cccc3c2[C@H]1Cc1ccc(O)c(O)c1-3` [apomorphine] the “locomotor activity after acute administration” value (MPTP-long term and MPTP-LacZ primates) was “levels similar to that of normal primates” and the “dyskinesia after acute administration” value (MPTP-long term and MPTP-Lenti-LacZ animals) was “debilitating choreiform and dystonic movements”.
